Experimental data as given in patent US20260151350A1, “COMPOSITIONS AND METHODS FOR TARGETED DELIVERY TO CELLS” (The Board of Regents of The University of Texas System, priority 2021, published 2026).

Test system: C57BL/6 mice
Assay: Cy5-mRNA biodistribution, ex vivo organ fluorescence after IV injection
Assay type: in vivo, mouse
Details: 0.5 mg/kg mRNA IV, 6 h
Method: FIG. 1B illustrates ex vivo fluorescence of Cy5-labelled mRNA in major organs extracted from C57BL/6 mice intravenously injected with example SORT LNPs (as described herein) that incorporate increasing percentages of different SORT molecules (0.5 mg/kg mRNA/body weight, 6 h).
FIG. 1C illustrates relative average Cy5 fluorescence measured in the liver, lung, and spleen as a function of SORT molecule percent inclusion (0.5 mg/kg mRNA/body weight, n=2). SORT molecules promote mRNA biodistribution to target organs. Data are shown as mean±s.e.m.
We first investigated the biodistribution of mRNA encapsulated in example SORT LNPs to determine whether there was a correlation between the organs in which the SORT LNPs accumulated and their tissue-specific mRNA activity. We formulated example liver, lung, and spleen SORT LNPs encapsulating Cy5-labelled mRNA following the identical protocols and formulation parameters used in our previous publications. We administered each LNP IV to C57BL/6 mice and tracked the in vivo biodistribution of the Cy5-mRNA using fluorescence imaging. Six hours post-injection, organs were excised and imaged ex vivo (FIG. 1B). The average fluorescence produced by the liver, spleen, and lungs was quantified (FIG. 1C). […] Importantly, these tracking studies quantify where the example SORT LNPs biodistribute but not where mRNA is translated to protein (functional delivery).

CCCCCCCC/C=C\CCCCCCCC(=O)OCC(CN(C)C)OC(=O)CCCCCCC/C=C\CCCCCCCC (stereo not shown) [DODAP, 1,2-Dioleoyl-3-dimethylammonium-propane]
SORT molecule inclusion giving optimal liver biodistribution: 20%
